The values below come from paper PMC3169413 (Acta Crystallographica Section F: Structural Biology and …, 2011).

The target in data set [1] is FumC (fumarate hydratase) from R. prowazekii (Rickettsia prowazekii, UniProt Q9ZCQ4). To be noted: active site; product analog; from crystallization precipitant, 1.4 M sodium malonate pH 6.0, 289 K; one malonate per protomer.
The data set “crystal structure” concerns the molecule itself. Nature of the data set: crystal structure.

As to `O=C(O)CC(=O)O` [malonate], in data set [1], the “X-ray crystal structure, 2.4 A” value was “The R. prowazekii FumC structure was determined in complex with the product analog malonate”.

B1: fumarate hydratase (FumC) from Rickettsia prowazekii strain Madrid E (enzyme)
chain: MKNYRIESDSFGEIQIEEKFYWGAQTQRSLNNFKISKQKMPKILIRALAILKKCAAQVNYEFGDLEYKIATSIDKAIDRILAGEFEDNFPLVVWQTGSGTQTNMNMNEVIASIANEELTGKKGGKFPVHPNDHVNKGQSSNDSFPTAMHIATVLATKQQLIPALNNLLTYLQDKSKDWDKIIKIGRTHLQDATPLTLKQEFSGYITQIEYALERIEDALKKVYLLAQGGTAVGTGINSKIGFDIKFAQKVAEFTQQPFKTAPNKFESLAAHDALVEFSGTLNTIAVSLMKIANDIRLLGSGPRCGLGELHLPENEPGSSIMPGKVNPTQVEALTMVCTQVMGNHVTVTIAGSNGHLELNVFKPVIIYNILQSIELLSDSVNSFVTHCVKGLEPNIARINTLRDKSLMLVTVLNPHIGYDNAAKIAKEAHKYGITLKEAAKKLNFLSEEEFDKIVVPEKMIS
notes: also called fumarase; class II fumarate hydratase
As to B1, the binding result in the data set “crystal structure” is listed as “binds”.
